Test results from ChEMBL document CHEMBL4421728, “Bach1 Inhibitors in Combination with Nrf2 Activators and Pharmaceutical Compositions Thereof” (2017).

Key:
[1] = biological target: T1, Transcription regulator protein BACH1 (Homo sapiens) (UniProt O14867); assay: Inhibition of Bach1 in normal human lung fibroblasts assessed as induction of HMOX protein expression by measuring HMOX positive cells level at 0.156 uM in presence of 0.1 uM Nrf2 activator DMF incubated for 16 to 18 hrs by immunostaining relative to control DMSO; parameters: scale not given: the % may be the effect or the level left
T1 sequence (whole entry): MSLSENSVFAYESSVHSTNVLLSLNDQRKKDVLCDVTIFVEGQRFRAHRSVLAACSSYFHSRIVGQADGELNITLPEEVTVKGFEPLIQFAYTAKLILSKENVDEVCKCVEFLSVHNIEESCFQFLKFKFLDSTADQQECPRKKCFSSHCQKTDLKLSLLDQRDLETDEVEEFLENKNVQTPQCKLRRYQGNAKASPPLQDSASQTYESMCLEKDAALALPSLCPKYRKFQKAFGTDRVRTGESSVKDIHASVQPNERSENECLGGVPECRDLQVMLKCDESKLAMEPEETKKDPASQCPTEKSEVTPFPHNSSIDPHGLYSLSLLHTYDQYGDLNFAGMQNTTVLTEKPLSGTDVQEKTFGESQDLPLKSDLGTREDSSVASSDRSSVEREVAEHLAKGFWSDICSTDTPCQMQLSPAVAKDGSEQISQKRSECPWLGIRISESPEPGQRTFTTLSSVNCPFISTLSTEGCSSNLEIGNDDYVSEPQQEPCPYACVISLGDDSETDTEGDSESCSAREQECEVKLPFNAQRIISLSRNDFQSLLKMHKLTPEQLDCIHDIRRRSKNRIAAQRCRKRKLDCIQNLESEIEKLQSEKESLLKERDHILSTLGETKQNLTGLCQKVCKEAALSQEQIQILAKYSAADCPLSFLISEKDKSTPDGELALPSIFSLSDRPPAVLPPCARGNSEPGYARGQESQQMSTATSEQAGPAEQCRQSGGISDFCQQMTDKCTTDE

[2] = biological target: T1, Transcription regulator protein BACH1 (Homo sapiens); assay: Inhibition of Bach1 in normal human lung fibroblasts assessed as induction of HMOX protein expression at 0.019 uM in presence of 1 uM Nrf2 activator DMF incubated for 16 to 18 hrs by immunostaining relative to control
[3] = biological target: T1, Transcription regulator protein BACH1 (Homo sapiens); assay: Inhibition of Bach1 in normal human lung fibroblasts assessed as induction of HMOX protein expression by measuring HMOX positive cells level at 0.156 uM in presence of 3 uM Nrf2 activator DMF incubated for 16 to 18 hrs by immunostaining relative to control DMSO; parameters: scale not given: the % may be the effect or the level left
[4] = biological target: T1, Transcription regulator protein BACH1 (Homo sapiens); assay: Inhibition of Bach1 in normal human lung fibroblasts assessed as induction of HMOX protein expression by measuring HMOX positive cells level at 0.156 uM in presence of 0.03 uM Nrf2 activator DMF incubated for 16 to 18 hrs by immunostaining relative to control DMSO; parameters: scale not given: the % may be the effect or the level left
[5] = biological target: T1, Transcription regulator protein BACH1 (Homo sapiens); assay: Inhibition of Bach1 in normal human lung fibroblasts assessed as induction of HMOX protein expression at 0.625 uM incubated for 16 to 18 hrs in presence of 0.078 uM Nrf2 activator Bardoxolone methyl by immunostaining relative to control
[6] = biological target: T1, Transcription regulator protein BACH1 (Homo sapiens); assay: Inhibition of Bach1 in normal human lung fibroblasts assessed as induction of HMOX protein expression at 0.312 uM incubated for 16 to 18 hrs in presence of 0.156 uM Nrf2 activator Bardoxolone methyl by immunostaining relative to control
[7] = biological target: T1, Transcription regulator protein BACH1 (Homo sapiens); assay: Inhibition of Bach1 in normal human lung fibroblasts assessed as induction of HMOX protein expression at 0.625 uM incubated for 16 to 18 hrs in presence of 0.312 uM Nrf2 activator Bardoxolone methyl by immunostaining relative to control
[8] = biological target: T1, Transcription regulator protein BACH1 (Homo sapiens); assay: Inhibition of Bach1 in normal human lung fibroblasts assessed as induction of HMOX protein expression at 0.019 uM incubated for 16 to 18 hrs in presence of 0.0024 uM Nrf2 activator Bardoxolone methyl by immunostaining relative to control
[9] = biological target: T1, Transcription regulator protein BACH1 (Homo sapiens); assay: Inhibition of Bach1 in normal human lung fibroblasts assessed as induction of HMOX protein expression at 0.039 uM incubated for 16 to 18 hrs in presence of 0.0024 uM Nrf2 activator Bardoxolone methyl by immunostaining relative to control
[10] = biological target: T1, Transcription regulator protein BACH1 (Homo sapiens); assay: Inhibition of Bach1 in normal human lung fibroblasts assessed as induction of HMOX protein expression at 0.078 uM incubated for 16 to 18 hrs in presence of 0.156 uM Nrf2 activator Bardoxolone methyl by immunostaining relative to control
[11] = biological target: T1, Transcription regulator protein BACH1 (Homo sapiens); assay: Inhibition of Bach1 in normal human lung fibroblasts assessed as induction of HMOX protein expression at 0.156 uM incubated for 16 to 18 hrs in presence of 0.312 uM Nrf2 activator Bardoxolone methyl by immunostaining relative to control
[12] = biological target: T1, Transcription regulator protein BACH1 (Homo sapiens); assay: Inhibition of Bach1 in normal human lung fibroblasts assessed as induction of HMOX protein expression at 1.25 uM incubated for 16 to 18 hrs in presence of 0.0024 uM Nrf2 activator Bardoxolone methyl by immunostaining relative to control
[13] = biological target: T1, Transcription regulator protein BACH1 (Homo sapiens); assay: Inhibition of Bach1 in normal human lung fibroblasts assessed as induction of HMOX protein expression at 0.019 uM incubated for 16 to 18 hrs in presence of 0.0097 uM Nrf2 activator Bardoxolone methyl by immunostaining relative to control
[14] = biological target: T1, Transcription regulator protein BACH1 (Homo sapiens); assay: Inhibition of Bach1 in normal human lung fibroblasts assessed as induction of HMOX protein expression at 0.312 uM incubated for 16 to 18 hrs in presence of 0.0048 uM Nrf2 activator Bardoxolone methyl by immunostaining relative to control
[15] = biological target: T1, Transcription regulator protein BACH1 (Homo sapiens); assay: Inhibition of Bach1 in normal human lung fibroblasts assessed as induction of HMOX protein expression at 0.625 uM incubated for 16 to 18 hrs in presence of 0.0097 uM Nrf2 activator Bardoxolone methyl by immunostaining relative to control
[16] = biological target: T1, Transcription regulator protein BACH1 (Homo sapiens); assay: Inhibition of Bach1 in normal human lung fibroblasts assessed as induction of HMOX protein expression at 0.625 uM incubated for 16 to 18 hrs in presence of 0.019 uM Nrf2 activator Bardoxolone methyl by immunostaining relative to control
[17] = biological target: T1, Transcription regulator protein BACH1 (Homo sapiens); assay: Inhibition of Bach1 in normal human lung fibroblasts assessed as induction of HMOX protein expression at 1.25 uM incubated for 16 to 18 hrs in presence of 0.039 uM Nrf2 activator Bardoxolone methyl by immunostaining relative to control
[18] = biological target: T1, Transcription regulator protein BACH1 (Homo sapiens); assay: Inhibition of Bach1 in normal human lung fibroblasts assessed as induction of HMOX protein expression at 0.625 uM incubated for 16 to 18 hrs by immunostaining relative to control
[19] = biological target: T1, Transcription regulator protein BACH1 (Homo sapiens); assay: Inhibition of Bach1 in normal human lung fibroblasts assessed as induction of HMOX protein expression at 0.039 uM incubated for 16 to 18 hrs in presence of 0.0097 uM Nrf2 activator Bardoxolone methyl by immunostaining relative to control
[20] = biological target: T1, Transcription regulator protein BACH1 (Homo sapiens); assay: Inhibition of Bach1 in normal human lung fibroblasts assessed as induction of HMOX protein expression at 0.039 uM incubated for 16 to 18 hrs in presence of 0.019 uM Nrf2 activator Bardoxolone methyl by immunostaining relative to control

Structure (SMILES)	Activity [1] [%]	fold change (FC) [2]	Activity [3] [%]	Activity [4] [%]	fold change (FC) [5]	fold change (FC) [6]	fold change (FC) [7]	fold change (FC) [8]	fold change (FC) [9]	fold change (FC) [10]	fold change (FC) [11]	fold change (FC) [12]	fold change (FC) [13]	fold change (FC) [14]	fold change (FC) [15]	fold change (FC) [16]	fold change (FC) [17]	fold change (FC) [18]	fold change (FC) [19]	fold change (FC) [20]
CN(C)C(=O)CNC(=O)c1ccc2c(c1)nc(Nc1nc3ccc(C(F)(F)F)cc3s1)n2C	33.1	1.68	89	22.1	–	–	–	–	–	–	–	–	–	–	–	–	–	–	–	–
COCCNC(=O)c1cnc2c(c1)nc(Nc1nc3ccc(OC(F)(F)F)cc3s1)n2C	18.5	1.57	79.6	8.51	–	–	–	–	–	–	–	–	–	–	–	–	–	–	–	–
Cn1c(Nc2nc3ccc(C(F)(F)F)cc3s2)nc2cc(C(=O)NCCOCCO)ccc21	88.2	2.17	99.2	92.5	–	–	–	–	–	–	–	–	–	–	–	–	–	–	–	–
CNC(=O)c1ccc2c(c1)nc(Nc1nc3ccc(OC(F)(F)F)cc3s1)n2C	–	–	–	–	18.6	19.2	12.7	3.24	2.32	17.9	16	16.1	7.14	13.6	17.2	16.8	15.6	15	5.31	8.57
